“And” between values parts separate entries of the source, which are not always exact repeats. Identical values can stand only once. Toxic doses and inconclusive results are not listed. Rule as the data show it: active = T/C of 150% or more; inactive = T/C below 125%.
System: L1210 leukemia ip in BDF1 mice, survival T/C
Experiment: NCI In Vivo Anticancer Drug Screen. Data for tumor model L1210 Leukemia (intraperitoneal) in B6D2F1 (BDF1) mice
Conditions: endpoint: mean survival time, higher = longer survival
Outline: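 Value reflects the ratio of survival in compound-treated mice to survival in vehicle-treated controls, with both groups carrying the same transplanted tumor.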

[1] = dose: 100.0 mg/kg/injection, schedule: Q01DX001 (ip), vehicle: saline
[2] = dose: 100.0 mg/kg/injection, schedule: Q01DX009 (ip), vehicle: saline
[3] = dose: 200.0 mg/kg/injection, schedule: Q01DX001 (ip), vehicle: saline
[4] = dose: 200.0 mg/kg/injection, schedule: Q01DX009 (ip), vehicle: saline
[5] = dose: 400.0 mg/kg/injection, schedule: Q01DX001 (ip), vehicle: saline
[6] = dose: 400.0 mg/kg/injection, schedule: Q01DX009 (ip), vehicle: saline
[7] = dose: 100.0 mg/kg/injection, schedule: Q01DX009 (ip), vehicle: gum acacia
[8] = dose: 200.0 mg/kg/injection, schedule: Q01DX009 (ip), vehicle: gum acacia
[9] = dose: 100.0 mg/kg/injection, schedule: Q04DX002 (ip), vehicle: Klucel (hydroxypropylcellulose) (HPC)
[10] = dose: 200.0 mg/kg/injection, schedule: Q04DX002 (ip), vehicle: Klucel (hydroxypropylcellulose) (HPC)
[11] = dose: 400.0 mg/kg/injection, schedule: Q04DX002 (ip), vehicle: Klucel (hydroxypropylcellulose) (HPC)
[12] = dose: 100.0 mg/kg/injection, schedule: Q01DX009 (ip), vehicle: saline with Tween-80
[13] = dose: 200.0 mg/kg/injection, schedule: Q01DX009 (ip), vehicle: saline with Tween-80
[14] = dose: 400.0 mg/kg/injection, schedule: Q01DX009 (ip), vehicle: saline with Tween-80
[15] = dose: 100.0 mg/kg/injection, schedule: Q01DX009 (ip), vehicle: Klucel (hydroxypropylcellulose) (HPC)
[16] = dose: 200.0 mg/kg/injection, schedule: Q01DX009 (ip), vehicle: Klucel (hydroxypropylcellulose) (HPC)
[17] = dose: 400.0 mg/kg/injection, schedule: Q01DX009 (ip), vehicle: Klucel (hydroxypropylcellulose) (HPC)
[18] = dose: 100.0 mg/kg/injection, schedule: Q04DX002 (ip), vehicle: saline with Tween-80
[19] = dose: 200.0 mg/kg/injection, schedule: Q04DX002 (ip), vehicle: saline with Tween-80
[20] = dose: 400.0 mg/kg/injection, schedule: Q04DX002 (ip), vehicle: saline with Tween-80
[21] = dose: 50.0 mg/kg/injection, schedule: Q04DX003 (ip), vehicle: saline with Tween-80
[22] = dose: 100.0 mg/kg/injection, schedule: Q04DX003 (ip), vehicle: saline with Tween-80
[23] = dose: 200.0 mg/kg/injection, schedule: Q04DX003 (ip), vehicle: saline with Tween-80
[24] = dose: 400.0 mg/kg/injection, schedule: Q04DX003 (ip), vehicle: saline with Tween-80
[25] = dose: 100.0 mg/kg/injection, schedule: Q04DX003 (ip), vehicle: Klucel (hydroxypropylcellulose) (HPC)
[26] = dose: 200.0 mg/kg/injection, schedule: Q04DX003 (ip), vehicle: Klucel (hydroxypropylcellulose) (HPC)
[27] = dose: 400.0 mg/kg/injection, schedule: Q04DX003 (ip), vehicle: Klucel (hydroxypropylcellulose) (HPC)

Measured: T/C

CCOC(=O)c1csc(CCNC(=O)c2ccccc2)n1
inactive: [1] 99 % of control | [2] 108 % of control | dose: 100.0 mg/kg/injection, schedule: Q04DX003 (ip), vehicle: saline 96 % of control | [3] 102 % of control | [4] 97 % of control | dose: 200.0 mg/kg/injection, schedule: Q04DX003 (ip), vehicle: saline 98 % of control | [5] 96 % of control | [6] 100 % of control | dose: 400.0 mg/kg/injection, schedule: Q04DX003 (ip), vehicle: saline 95 % of control

CC1(C)CCC(=NNC(N)=S)CC1
inactive: dose: 5.0 mg/kg/injection, schedule: Q01DX001 (ip), vehicle: carboxymethylcellulose (CMC) 101 % of control | dose: 10.0 mg/kg/injection, schedule: Q01DX001 (ip), vehicle: carboxymethylcellulose (CMC) 97 % of control | dose: 20.0 mg/kg/injection, schedule: Q01DX001 (ip), vehicle: carboxymethylcellulose (CMC) 92 % of control | dose: 40.0 mg/kg/injection, schedule: Q01DX001 (ip), vehicle: carboxymethylcellulose (CMC) 92 % of control

CC1=C(C(=O)O)CCCO1
inactive: [1] 98 % of control | [3] 98 % of control | [5] 98 % of control

COc1ccc(OC)c(NC(=O)Nc2cccc(F)c2)c1
inactive: [7] 90 % of control | [8] 92 % of control

Cc1ccc(C(=O)C(C)(C)C)c(C)c1
inactive: [2] 97 % of control | [4] 97 % of control | [6] 93 % of control

ClCCCNCCCCl
inactive: dose: 75.0 mg/kg/injection, schedule: Q01DX001 (ip), vehicle: saline 101 % of control | dose: 150.0 mg/kg/injection, schedule: Q01DX001 (ip), vehicle: saline 97 % of control

CCCCCC#CC(=O)OCCC
inactive: [9] 97 % of control | [10] 101 % of control | [11] 101 % of control

Cc1ccc(NC(=O)Nc2cccc(C(F)(F)F)c2)cc1Cl
inactive: [7] 92 % of control | [8] 89 % of control | dose: 400.0 mg/kg/injection, schedule: Q01DX009 (ip), vehicle: gum acacia 91 % of control

COc1ccc(C(=O)c2c(C(=O)O)ccc3ccccc23)cc1
inactive: [12] 104 % of control | dose: 100.0 mg/kg/injection, schedule: Q04DX003 (ip), vehicle: other 101 % of control | [13] 95 % of control | dose: 200.0 mg/kg/injection, schedule: Q04DX003 (ip), vehicle: other 100 % of control | [14] 106 % of control | dose: 400.0 mg/kg/injection, schedule: Q04DX003 (ip), vehicle: other 100 % of control

COc1cc2[nH]c(=O)c3cccn3c(=O)c2cc1OC
inactive: dose: 50.0 mg/kg/injection, schedule: Q04DX002 (ip), vehicle: other 102 % of control | dose: 100.0 mg/kg/injection, schedule: Q04DX002 (ip), vehicle: other 105 % of control | dose: 200.0 mg/kg/injection, schedule: Q04DX002 (ip), vehicle: other 94 % of control

COc1cccc(C(=NC(=O)c2ccccc2)c2ccccc2)c1
inactive: [15] 100 % of control | [16] 97 % of control | [17] 91 % of control

CCOC(=O)/C(C#N)=C(\CCCCc1ccccc1)CC(C)C
inactive: [18] 101 % of control | [19] 92 % of control | [20] 104 % of control

CC1(C)C2CCC1(CS(=O)(=O)Cl)C(=O)C2 (stereo unspecified)
inactive: dose: 50.0 mg/kg/injection, schedule: Q01DX001 (ip), vehicle: carboxymethylcellulose (CMC) 100 % of control | dose: 100.0 mg/kg/injection, schedule: Q01DX001 (ip), vehicle: carboxymethylcellulose (CMC) 97 % of control | dose: 200.0 mg/kg/injection, schedule: Q01DX001 (ip), vehicle: carboxymethylcellulose (CMC) 97 % of control

CCc1cccc(CC)c1NC(=O)Nc1cc(Cl)ccc1C
inactive: dose: 25.0 mg/kg/injection, schedule: Q04DX003 (ip), vehicle: saline with Tween-80 94 % of control | [21] 105 % of control and 86 % of control | dose: 100.0 mg/kg/injection, schedule: Q01DX001 (ip), vehicle: saline with Tween-80 105 % of control | [12] 97 % of control and 111 % of control | [18] 95 % of control and 103 % of control | [22] 87 % of control and 91 % of control | dose: 200.0 mg/kg/injection, schedule: Q01DX001 (ip), vehicle: saline with Tween-80 90 % of control | [13] 97 % of control and 113 % of control | [19] 103 % of control | [23] 91 % of control | dose: 400.0 mg/kg/injection, schedule: Q01DX001 (ip), vehicle: saline with Tween-80 89 % of control | [14] 94 % of control and 97 % of control | [20] 98 % of control and 89 % of control | [24] 88 % of control

COc1cc(-c2nc(CCl)no2)cc(OC)c1OC
inactive: [9] 95 % of control | [10] 104 % of control | [11] 104 % of control

O=C(COc1ccc(Cl)cc1)Nc1ccccc1C(F)(F)F
inactive: [15] 102 % of control and 89 % of control | [25] 103 % of control | [16] 100 % of control | [26] 106 % of control | [17] 98 % of control | [27] 93 % of control

CN(C)c1ccc([N+](=O)[O-])cn1
inactive: [18] 97 % of control | [19] 97 % of control

IC12CC3CC(CC(C3)C1)C2
inactive: [12] 93 % of control | [13] 87 % of control | [14] 97 % of control

C=C(C)C12OC3(c4ccccc4)OC1C1C4OC4(CO)C(O)C4(O)C(=O)C(C)=CC4C1(O3)C(C)C2OC(=O)/C=C/C=C/c1ccccc1 (stereo unspecified)
inactive: dose: 25.0 micrograms/kg/injection, schedule: Q01DX009 (ip), vehicle: alcohol 97 % of control | dose: 50.0 micrograms/kg/injection, schedule: Q01DX009 (ip), vehicle: alcohol 105 % of control | dose: 100.0 micrograms/kg/injection, schedule: Q01DX009 (ip), vehicle: alcohol 92 % of control | dose: 200.0 micrograms/kg/injection, schedule: Q01DX009 (ip), vehicle: alcohol 92 % of control | dose: 400.0 micrograms/kg/injection, schedule: Q01DX009 (ip), vehicle: alcohol 103 % of control

CCC/C=C(\C)CCCCCCCCC (tested in a mixture with another compound)
inactive: [22] 98 % of control | [23] 101 % of control | [24] 106 % of control

O=C1CCC=C(c2cccc([N+](=O)[O-])c2)O1
inactive: [25] 100 % of control | [26] 94 % of control | [27] 94 % of control

CCCOC(=O)N(C)c1ccccc1
inactive: dose: 75.0 mg/kg/injection, schedule: Q04DX002 (ip), vehicle: Klucel (hydroxypropylcellulose) (HPC) 101 % of control | dose: 150.0 mg/kg/injection, schedule: Q04DX002 (ip), vehicle: Klucel (hydroxypropylcellulose) (HPC) 101 % of control | dose: 300.0 mg/kg/injection, schedule: Q04DX002 (ip), vehicle: Klucel (hydroxypropylcellulose) (HPC) 101 % of control

Cc1cc(NC(=O)c2ccccc2)c(Cl)cc1N
inactive: dose: 50.0 mg/kg/injection, schedule: Q01DX009 (ip), vehicle: saline with Tween-80 105 % of control | [21] 94 % of control | [12] 98 % of control | [22] 98 % of control | [13] 93 % of control | [23] 93 % of control

O=C(O)c1ccsc1Cc1cccs1
inactive: dose: 100.0 mg/kg/injection, schedule: Q01DX001 (ip), vehicle: Klucel (hydroxypropylcellulose) (HPC) 101 % of control | [12] 97 % of control and 89 % of control | dose: 200.0 mg/kg/injection, schedule: Q01DX001 (ip), vehicle: Klucel (hydroxypropylcellulose) (HPC) 92 % of control | [13] 96 % of control and 100 % of control | dose: 400.0 mg/kg/injection, schedule: Q01DX001 (ip), vehicle: Klucel (hydroxypropylcellulose) (HPC) 106 % of control | [14] 93 % of control and 89 % of control

— PubChem BioAssay AID248 (DTP/NCI, 2004)
